# In patent US20040121460A1, “Differentiation of stem cells to pancreatic endocrine cells” (priority 2003, published 2004):
# Entries after “also recorded” stand apart in the source; their conditions may differ.
# Experiments:
# [1] = system: ES cell-derived insulin-secreting islet clusters; assay: Insulin secretion from ES cell-derived islet clusters, insulin ELISA; format: cell-based, murine; conditions: for insulin secretion in response to agonists (secretagogues): in the presence of low concentration (5 mM) of glucose
# Description: A series of experiments were conducted to measure the kinetics and pharmacology of glucose-dependent insulin release. Insulin secretion was measured in Krebs-Ringer-bicarbonate buffer containing 120 mM NaCl, 5 mM KCl, 2.5 mM CaCl2, 1.1 mM MgCl2, 25 mM NaHCO3 and 0.1% bovine serum albumin at 37° C. Inhibitors of insulin secretion (nifedipine and diazoxide) were added to buffer during preincubation (30 min) and throughout the incubation period. For determination of total cellular insulin content, insulin was extracted from cells with acid ethanol (10% glacial acetic acid in absolute ethanol) overnight at 4° C., followed by cell sonication. Total cellular and secreted insulin was assayed using insulin ELISA kit (ALPCO, Windham, N.H.). Protein concentrations were determined using DC protein assay system (Bio-Rad, Hercules, Calif.).
# To determine if the islet clusters utilize physiological glucose-mediated signaling pathways, the effect of several well-characterized agonists and antagonists of insulin secretion were examined. The mechanism by which glucose stimulates insulin secretion in vivo is complex. As outlined in FIG. 3B, transport of glucose into the cell, and its metabolism results in ATP production, an event which, in turn, leads to inhibition of ATP-dependent K^+ channels, cell membrane depolarization, opening of the voltage-dependent Ca^++ channels, and influx of extracellular Ca^++ into the cell. Additionally, intracellular Ca^++ can be elevated by release of Ca^++ from intracellular stores through other mechanisms. Elevation of free intracellular Ca^++ is coupled to multiple phosphorylation events modulated by protein kinase C (PKC) and protein kinase A (PKA) cascades, which ultimately lead to release of insulin from the cell (McClenaghan et al., J Mol. Med., 77:235, 1999).
# ES cell cultures = assay: LIF treatment of ES cell cultures at stage 2 (EB formation), immunostaining for EN-1, PDX-1, TuJ1, GFAP; format: cell-based
# Description: FIG. 5 is a set of panels showing the neural and pancreatic differentiation of ES cells. FIG. 1A is a set of digital images showing the cells during the procedure for induction of midbrain dopaminergic neurons from ES cells as previous described (see WO 01/83715, herein incorporated by reference). Briefly, the ES cells were taken through 5 steps or stages. In stage 1 undifferentiated ES cells were cultured for 5 days in the presence of 15% fetal calf serum (FCS) on gelatin coated tissue culture dishes in the presence of LIF (1,400 U/ml). In stage 2 embryoid bodies (Ebs) were generated in the presence of FCS for 4 days in the presence or absence of LIF (1,000 U/ml.). In stage 3, the EBs were plated into ITSFn medium (Okabe et al., Mech. Dev. 59: 89-102, 1996) where over 10 days Nestin+ cells migrated from the cell aggregates. In stage 4 these Nestin+ cells were resuspended and expanded for 4 days in N2 medium containing bFGF, sonic hedgehog (Shh) and fibroblast growth factor-8 (FGF8). In stage 5 the medium was changed into N2 medium without bFGF, Shh or FGF8. These cells differentiated efficiently into neurons and astrocytes over a two week period. Embryoid bodies were generated in the presence (LIF+) or absence (LIF−) of LIF (1000 U/ml) and differentiated. Double-immunostaining for TuJ1/GFAP (upper panels, day 8 in stage 5) and PDX-1/En-1 (lower panels, day 3 in stage 4). LIF treatment in stage 2 (EB formation) increases the neuronal (TuJ1+cells, light grey) and decreases the astrocytic (GFAP+, dark grey) population. […] FIG. 5C is a bar graph showing that the yield of En-1+ and PDX-1+ cells is expressed as a percentage of total cells at stage 4.
# The methods disclosed herein include five stages: (1) expansion of ES cells (2) generation of EB (3) selection for CNS precursor cells (4) expansion of pancreatic (versus central nervous system (CNS)) precursor cells, and (5) differentiation of pancreatic endocrine cells (versus differentiation of neuronal cells). Expansion of ES cells and generation of EB was performed as disclosed herein. EB were cultured in DMEM/15% serum (ES medium) with LIF (1000 units (U)/ml) for 4 days with changing medium every 2 day. After 4 days, EBs were transferred to a tissue culture dish cultured in ITS medium containing fibronectin for 10-12 days. EBs which were kept in absence of LIF in stage II were phenotypically different than EB cultured in the presence of LIF in stage II. In stage 1V, ES-derived CNS precursor were cultured in N2 medium in the presence of bFGF (20 ng/ml) and Shh (500 ng/ml) and FGF8 (100 ng/ml) for 4 days and after withdrawal of bFGF/SHH/FGF8, differentiated them for 10-12 day in N2 medium with ascorbic acid. Specifically, EB cultured in the absence of LIF were spread out in stage III. EBs which were treated with LIF maintained a round shape and CNS precursor cells migrated from attaching point of EB in dishes. Therefore, a selection for CNS precursor was accomplished by culturing in the […] of LIF.
# [2] = at stage 4, LIF at stage 2 (EB formation)
compound,measurement,setting,value
CCCCNC(=O)NS(=O)(=O)c1ccc(C)cc1 [tolbutamide],insulin secretion in response to agonists (secretagogues),[1],stimulated insulin secretion
CC1=NS(=O)(=O)c2cc(Cl)ccc2N1 [diazoxide],insulin secretion in the presence of antagonists (inhibitors),[1]; in the presence of high glucose concentrations (20 mM),inhibited insulin secretion
C[N+](C)(C)CCOC(N)=O [carbachol],insulin secretion in response to agonists (secretagogues),[1],stimulated insulin secretion
"CC(C)Cn1c(=O)n(C)c(=O)c2[nH]cnc21 [IBMX, 3-isobutil-1-methylxanthine]",insulin secretion in response to agonists (secretagogues),[1],stimulated insulin secretion
LIF: growth factor that prevents differentiation of ES cells; glycosylated 58 kDa protein of 179 amino acids,PDX-1 positive cells / pancreatic precursor cells,ES cell cultures; [2],negatively regulates; also recorded: Only few
same,expression of EN-1 / midbrain precursor cells (En-1+ cells),ES cell cultures; [2],efficiently enhances; also recorded: increases
same,"EN-1 positive cells, share of total ES cell-derived cell population","ES cell cultures; at stage 4, LIF present at stage 2",up to 80%
same,yield of neurons / neuronal (TuJ1+) population,"ES cell cultures; at stage 5, LIF at stage 2 (EB formation)",increased
same,astrocytic (GFAP+) population,"ES cell cultures; day 8 in stage 5, LIF at stage 2 (EB formation)",decreases
